Laboratory results: publication PMC6522510 (Nature Communications, 2019)
Structures can show the parent of a compound that is named as a salt. Where two headings read alike, the source gives them in different places.

How the values were obtained:
Parameters in all cases: species or system AML cell lines (8); Primary HTS, single concentration about 10 uM, Cell Titer Glo viability; log10 luminescence, per cent inhibition relative to cycloheximide control
Settings in all cases: 72 h, relative to cycloheximide control, log10 luminescence, inhibitor
CMK = tested on: CMK
CMS = tested on: CMS
MOLM-13 = tested on: MOLM-13
U937 = tested on: U937
CHRF288-11 = tested on: CHRF288-11
M07e = tested on: M07e
MV4-11 = tested on: MV4-11
ML-2 = tested on: ML-2

Compound | CMK %inh (CMK; CMK %inh, 10 µM) [%] | CMS %inh (CMS; CMS %inh, 10 µM) [%] | MOLM-13 %inh (MOLM-13; MOLM-13 %inh, 10 µM) [%] | U937 %inh (U937; U937 %inh, 10 µM) [%] | CHRF288-11 %inh (CHRF288-11; CHRF288-11 %inh, 10 µM) [%] | M07e %inh (M07e; M07e %inh, 10 µM) [%] | MV4-11 %inh (MV4-11; MV4-11 %inh, 10 µM) [%] | ML-2 %inh (ML-2; ML-2 %inh, 10 µM) [%] | CMK %inh (CMK) [%] | CMS %inh (CMS) [%] | MOLM-13 %inh (MOLM-13) [%] | U937 %inh (U937) [%] | CHRF288-11 %inh (CHRF288-11) [%] | M07e %inh (M07e) [%] | MV4-11 %inh (MV4-11) [%] | ML-2 %inh (ML-2) [%]
C[C@]12CC[C@@H]3c4ccc(O)cc4CC[C@H]3[C@@H]1CCC2=O [SJ000285760-8, ESTRONE] | -1.298 | -1.181 | -0.7843 | -0.6937 | 3.613 | 2.553 | 1.151 | 0.7014 | – | – | – | – | – | – | – | –
C=C(CC)C(=O)c1ccc(OCC(=O)O)c(Cl)c1Cl [SJ000285761-4, ETHACRYNIC ACID] | – | – | – | – | – | – | – | – | 27.12 | -0.1029 | 7.494 | 4.395 | 13.52 | 4.659 | 1.71 | 6.312
CCc1cc(C(N)=S)ccn1 [SJ000285764-4, ETHIONAMIDE] | – | – | – | – | – | – | – | – | -7.383 | -3.091 | -0.3958 | -1.304 | 8.533 | 0.2673 | -3.503 | 0.2945
CC(=O)OCC(=O)[C@@]12OC(C)(C)O[C@@H]1C[C@H]1[C@@H]3C[C@H](F)C4=CC(=O)C=C[C@]4(C)[C@@]3(F)[C@@H](O)C[C@@]12C [SJ000285768-4, FLUOCINONIDE] | – | – | – | – | – | – | – | – | 3.895 | 8.496 | 6.203 | 4.65 | 0.7625 | 4.323 | 1.473 | 0.7594
Cc1ccc(C)c(OCCCC(C)(C)C(=O)O)c1 [SJ000285775-4, GEMFIBROZIL] | 2.032 | 6.72 | 2.26 | -0.006863 | -1.527 | 3.732 | 1.327 | -0.7985 | – | – | – | – | – | – | – | –
Cc1ccc(C)c(OCCCC(C)(C)C(=O)O)c1 [SJ000285775-5, GEMFIBROZIL] | 52.47 | 12.02 | 7.787 | 12.09 | 15.66 | 4.331 | 21.39 | 5.256 | – | – | – | – | – | – | – | –
N=C(N)NCCN1CCCCCCC1 [SJ000285779-4, GUANETHIDINE SULFATE] | – | – | – | – | – | – | – | – | -2.691 | -3.451 | -0.2658 | -2.581 | -6.834 | 0.2704 | -2.801 | 1.503
NS(=O)(=O)c1cc2c(cc1Cl)NCNS2(=O)=O [SJ000285785-7, HYDROCHLOROTHIAZIDE] | – | – | – | – | – | – | – | – | 2.395 | 1.584 | 5.809 | -0.1321 | 2.834 | -2.196 | 1.232 | 4.295
CCCCCC(=O)O[C@]1(C(C)=O)CC[C@H]2[C@@H]3CCC4=CC(=O)CC[C@]4(C)[C@H]3CC[C@@]21C [SJ000285789-3, HYDROXYPROGESTERONE CAPROATE] | – | – | – | – | – | – | – | – | 2.985 | -0.655 | 1.659 | 3.003 | -3.09 | 0.1043 | -1.131 | -1.962
CC(=O)Nc1nnc(S(N)(=O)=O)s1 [SJ000285803-7, ACETAZOLAMIDE] | – | – | – | – | – | – | – | – | 2.601 | 0.5025 | 3.554 | -0.874 | 0.8463 | -1.461 | 1.807 | -2.151
Oc1ncnc2[nH]ncc12 [SJ000285807-6, ALLOPURINOL] | – | – | – | – | – | – | – | – | -2.837 | -3.837 | -2.79 | 0.524 | 0.3228 | -3.01 | -0.8311 | -1.752
COc1ccc(C(Cl)=C(c2ccc(OC)cc2)c2ccc(OC)cc2)cc1 [SJ000285822-4, CHLOROTRIANISENE] | – | – | – | – | – | – | – | – | 7.136 | 1.562 | 5.231 | 7.913 | -2.199 | 9.609 | 5.688 | 4.119
NC(N)=Nc1nc(CSCC/C(N)=N/S(N)(=O)=O)cs1 [SJ000285829-7, FAMOTIDINE] | – | – | – | – | – | – | – | – | 0.6614 | 0.7839 | 1.07 | 7.705 | -4.142 | 1.389 | -0.5719 | 2.616
CCc1cccc2c3c([nH]c12)C(CC)(CC(=O)O)OCC3 (centres unmarked) [SJ000285831-7, ETODOLAC] | – | – | – | – | – | – | – | – | 4.628 | 0.03623 | 1.754 | -0.08316 | -0.814 | 4.534 | 1.346 | 1.517
Nc1ccc(S(=O)(=O)Nc2ccccn2)cc1 [SJ000285852-4, SULFAPYRIDINE] | -3.962 | 2.156 | -2.284 | 2.235 | -1.153 | -0.2217 | 0.2362 | 1.702 | – | – | – | – | – | – | – | –
Nc1ccc(S(=O)(=O)Nc2ccccn2)cc1 [SJ000285852-5, SULFAPYRIDINE] | -1.27 | 2.339 | 1.863 | 0.04414 | 1.364 | 0.899 | 1.788 | -1.492 | – | – | – | – | – | – | – | –
CC(C(=O)O)c1ccc(C(=O)c2cccs2)cc1 (centres unmarked) [SJ000285866-4, SUPROFEN] | – | – | – | – | – | – | – | – | 0.7662 | -1.053 | 1.517 | 0.9376 | 0.5358 | -0.1194 | -0.1438 | 4.32
Cc1ccc(S(=O)(=O)NC(=O)NN2CCCCCC2)cc1 [SJ000285887-7, TOLAZAMIDE] | – | – | – | – | – | – | – | – | -1.031 | 0.4752 | 0.3359 | -0.04508 | 90.56 | 4.47 | 0.7665 | -1.198
NCCCC[C@H](N[C@@H](CCc1ccccc1)C(=O)O)C(=O)N1CCC[C@H]1C(=O)O [SJ000285890-4, LISINOPRIL] | 2.277 | -0.4714 | -2.286 | 5.753 | -6.515 | -2.951 | 2.293 | -0.08728 | – | – | – | – | – | – | – | –
NCCCC[C@H](N[C@@H](CCc1ccccc1)C(=O)O)C(=O)N1CCC[C@H]1C(=O)O [SJ000285890-5, LISINOPRIL] | -4.631 | -0.7769 | -1.932 | 0.1781 | 0.1312 | -0.6293 | 1.898 | 2.151 | – | – | – | – | – | – | – | –
CCCCNc1cc(C(=O)O)cc(S(N)(=O)=O)c1Oc1ccccc1 [SJ000285893-7, BUMETANIDE] | -6.073 | 2.865 | -2.419 | 1.768 | -2.258 | -2.011 | -2.25 | -1.959 | – | – | – | – | – | – | – | –
CCCCNc1cc(C(=O)O)cc(S(N)(=O)=O)c1Oc1ccccc1 [SJ000285893-8, BUMETANIDE] | -0.903 | 2.258 | 2.916 | 0.292 | -1.756 | 45.31 | 2.839 | -0.3091 | – | – | – | – | – | – | – | –
